Biological target: Carbonic anhydrase 13 (Homo sapiens, UniProt Q8N1Q1)
Sequence (Q8N1Q1 whole entry): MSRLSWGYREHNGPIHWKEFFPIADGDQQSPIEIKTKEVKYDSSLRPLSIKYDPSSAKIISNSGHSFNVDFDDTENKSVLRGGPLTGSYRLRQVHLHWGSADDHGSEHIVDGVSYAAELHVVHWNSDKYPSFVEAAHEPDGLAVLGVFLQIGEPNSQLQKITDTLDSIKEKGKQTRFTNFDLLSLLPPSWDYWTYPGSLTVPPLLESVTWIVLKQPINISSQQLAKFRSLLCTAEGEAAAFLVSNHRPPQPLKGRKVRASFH
Description: Inhibition of human carbonic anhydrase13 preincubated for 15 mins by stopped-flow CO2 hydration assay

**Q.** For `CCN[C@H]1CN(CCCOC)S(=O)(=O)c2sc(S(N)(=O)=O)cc21` [BRINZOLAMIDE], which Ki is on record?
**A.** 0.011 µM
